# Data from patent US6514946B1, “Macrolide antibiotics and treatment and prophylaxis of pasteurellosis using the same” (Zaidan Hojin Biseibutsu Kagaku Kenkyu Kai, priority 1999, dated 2003).
# Assays:
# [1] = tested on: Past haemolytica BBPO102 N811; assay: Minimum inhibition concentration (MIC), agar double dilution method; format: cell-based, Pasteurella haemolytica; conditions: Mannheimia haemolytica, BBPO102N811
# Method in brief: (§1)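 Compounds were serially double-diluted into Mueller Hinton agar, following the Japan Society of Chemotherapy standard, and the test strains were then grown on it. Pasteurella alone was tested on brain heart infusion agar.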
# [2] = tested on: Past haemolytica BAPO103 S801; assay: as above; format: cell-based, Pasteurella haemolytica; conditions: Mannheimia haemolytica, BAPO103S801; Past haemolytica BAPO103 S801, strain from poultry; BHI agar; read-out: MIC
# Method in brief: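 Following the standard Japan Society of Chemotherapy procedure, MICs are determined by agar double dilution. Mueller Hinton medium serves for the non-Pasteurella bacteria, whereas Pasteurella gets brain heart infusion agar.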
# [3] = tested on: P. haemolytica 63-39 intraperitoneally infected mice; assay: Antiinfective test on infected mice
# S. aureus FDA209P = assay: Minimum inhibition concentration (MIC), agar double dilution method; format: cell-based, Staphylococcus aureus; conditions: Staphylococcus aureus, Mueller hinton agar, read-out: MIC
# Method in brief: (§2)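 Lowest inhibitory concentration is reported, from double-dilution plates of Mueller Hinton agar run to the Japan Society of Chemotherapy method.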
# [4] = tested on: Past. multocida BOPO305 M-17; assay: as above; format: cell-based, Pasteurella multocida; conditions: Pasteurella multocida, BOPO305M17; Past. multocida BOPO305 M-17, strain from a sheep; BHI agar; read-out: MIC
# Method in brief: as §1
# [5] = tested on: Past. multocida BSPO302 No. 6; assay: as above; format: cell-based, Pasteurella multocida; conditions: Pasteurella multocida, BSPO302NO.6; Past. multocida BSPO302 No. 6, strain from a pig; BHI agar; read-out: MIC
# Method in brief: as §1
# [6] = tested on: Klebsiella pneumoniae PCI602; assay: as above; format: cell-based; conditions: Mueller hinton agar, read-out: MIC
# Method in brief: as §2
# Escherichia coli NIHJ = assay: as above; format: cell-based; conditions: Mueller hinton agar, read-out: MIC
# Method in brief: as §2
# [7] = tested on: Micrococcus luteus PCI1001; assay: as above; format: cell-based; conditions: Mueller hinton agar, read-out: MIC
# Method in brief: as §2
# Serratia marcescens = assay: as above; format: cell-based; conditions: Mueller hinton agar, read-out: MIC
# Method in brief: as §2
# [8] = tested on: Salmonella enteritidis 1891; assay: as above; format: cell-based; conditions: Salmonella enterica, Mueller hinton agar, read-out: MIC
# Method in brief: as §2
# [9] = tested on: Pasteurella haemolytica BBPO101 N791; assay: as above; format: cell-based; conditions: Mannheimia haemolytica, BBPO101N791
# Method in brief: (§3)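 Agar two-fold dilution per Japan Society of Chemotherapy standard method; Mueller Hinton agar used for these organisms (BHI agar reserved for Pasteurella). MIC read as lowest concentration inhibiting growth.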
# [10] = tested on: Shigella dysenteriae JS11910; assay: as above; format: cell-based; conditions: Shigella dysenteriae, JS11910
# Method in brief: as §3
# [11] = tested on: Bacillus subtilis NRRL B-558; assay: as above; format: cell-based; conditions: Bacillus subtilis, NRRLB558
# Method in brief: as §3
# [12] = tested on: Staphylococcus aureus 193; assay: as above; format: cell-based; conditions: Mueller hinton agar, read-out: MIC
# Method in brief: as §2
# [13] = In vivo kinetics (absorption and excretion test) in mice; conditions: male, Slc ddY, mouse, sc, 5 mg/kg
# M. bovis = format: in vivo, cattle; conditions: nasal cavity swab
# [14] = tested on: S. aureus Smith (virulent strain); assay: microbe, parasite or virus in culture; format: cell-based, Staphylococcus aureus; conditions: Staphylococcus aureus
# Method in brief: as §3
# [15] = tested on: bovine bacterial pneumonia (Mycoplasma, Ureaplasma and Pasteurella); assay: Clinical test against bovine bacterial pneumonia; format: in vivo, cattle; parameters: Average clinical score: scale not given here
# Source text: Test 5: Clinical Test Against Bovine Bacterial Pneumonia
# In this test, each drug was subcutaneously administered to cattle suffering from bacterial pneumonia (infectious diseases with Mycoplasma, Ureaplasma and Pasteurella), respectively, and the clinical effect of P-MT was compared with those of tilmicosin and C-9.
# Tests are made on 17 case of one to two-month-old Holstein cattle (weight 56 to 101 kg) suffering from bacterial pneumonia caused by single or mixed infection of Pasteurella, Mycoplasma, Ureaplasma and Haemophilus (6 animals for each of P-MT and C-9 and 5 animals for tilmicosin). The drug was subcutaneously administered to the animals once a day in an amount of 10 mg/kg.
# Three calves showing a similar degree of symptoms at the start of the test were arranged in one group. Each subject of the same group was respectively tested with one of the above three compounds. Ailing calves were successively grouped when being available.
# Clinical findings, based on the daily observation from the time of the administration through the 5th day of the trial, were scored on each item according to the criteria in the table below. The clinical efficacy of the compounds was judged on the 5th day.
# As to judgment based on the clinical symptoms, cases which could be judged among each group were classified into remarkably effective (85 to 100), effective (70 to under 85), a little effective (50 to under 70) and infective (under 50) according to the following improvement rate by clinical scores, and after summing up, the following effective rate was calculated, the difference in the effective rate among the groups was determined using a statistical method, and thus effectivity was judged. [formula]
# P. haemolytica 63-39 = assay: Sensitivity (MIC), agar plate dilution method; conditions: Mannheimia haemolytica, 6339
# H. somnus = assay: Bacteria separation test from nasal cavity swab; format: in vivo, cattle
# E. coli K-12 R-5 = assay: Minimum inhibition concentration (MIC), agar double dilution method; format: cell-based, Escherichia coli; conditions: Escherichia coli, K12R5, Mueller hinton agar, read-out: MIC
# Method in brief: as §2
# [16] = before administration (baseline)
smiles,measurement,setting,value
"CC[C@H]1OC(=O)C[C@@H](O)[C@H](C)[C@@H](O[C@@H]2O[C@H](C)C(O)C(N(C)C)C2O)[C@@H](CCN2CC(C)CC(C)C2)C[C@@H](C)C(=O)/C=C/C(C)=C/[C@@H]1CO[C@@H]1OC(C)C(O)[C@@H](OC)C1OC (stereo partly shown) [Tilmicosin, tilmicosin]",MIC,[1],1.56 µg/mL
same,MIC,[2],50 µg/mL
same,ED50,"[3]; Mannheimia haemolytica, in Mus musculus, sc, 168 h, read-out: ED50 (95% confidence limit)",26.2 mg/kg
same,Surviving number after 7 days/test number,[3]; dose 1 mg/kg subcutaneous one hour after infection,0/10
same,Surviving number after 7 days/test number,[3]; dose 5 mg/kg subcutaneous one hour after infection,0/10
same,Surviving number after 7 days/test number,[3]; dose 10 mg/kg subcutaneous one hour after infection,3/10
same,Surviving number after 7 days/test number,[3]; dose 20 mg/kg subcutaneous one hour after infection,4/10
same,Surviving number after 7 days/test number,[3]; dose 30 mg/kg subcutaneous one hour after infection,5/10
same,ED90,"[3]; probit method from surviving numbers after 7 days, subcutaneous",102.1 mg/kg
same,MIC,S. aureus FDA209P,0.39 µg/mL
same,MIC,[4],6.25 µg/mL
same,MIC,[5],6.25 µg/mL
same,MIC,[6],25 µg/mL
same,MIC,Escherichia coli NIHJ,25 µg/mL
same,MIC,[7],0.2 µg/mL
same,MIC,Serratia marcescens,> 100 µg/mL
same,MIC,[8],6.25 µg/mL
same,MIC,[9],1.56 µg/mL
same,MIC,[10],100 µg/mL
same,MIC,[11],1.56 µg/mL
same,MIC,[12],0.39 µg/mL
same,concentration at 0.5 h,[13]; lung,310 ng/g
same,concentration at 1 h,[13]; lung,350 ng/g
same,concentration at 2 h,[13]; lung,310 ng/g
same,concentration at 4 h,[13]; lung,230 ng/g
same,concentration at 8 h,[13]; lung,195 ng/g
same,concentration at 24 h,[13]; lung,60 ng/g
same,concentration at 0.5 h,[13]; serum,230 ng/mL
same,concentration at 1 h,[13]; serum,60 ng/mL
same,concentration at 2 h,[13]; serum,50 ng/mL
same,concentration at 4 h,[13]; serum,40 ng/mL
same,Separation rate (%) at completion (number of animal),M. bovis; at completion,40 (2/5) % (number of animal)
same,Separation rate (%) before administration (number of animal),M. bovis; [16],40 (2/5) % (number of animal)
same,MIC,[14],1.56 µg/mL
same,Average clinical score,"[15]; 1 day after completion of administration, cattle, 10 mg/kg subcutaneous",3.5
same,Average clinical score,[15]; 2 days after completion of administration,2.8
same,Average clinical score,[15]; 3 days after completion of administration,2.2
same,Average clinical score,[15]; 4 days after completion of administration,2.7
same,Effective rate (%) in clinical effect,[15]; (remarkably effective + effective case number)/test case number × 100,40%
same,Average symptomatic improvement rate (%),[15]; (score before − score after administration)/score before × 100,65.6%
same,Average clinical score,"[15]; at administration (baseline), cattle, 10 mg/kg subcutaneous",6.5
same,A little effective (%) (case number),[15]; improvement rate 50 to under 70,20 (1) % (case number)
same,Effective (%) (case number),[15]; improvement rate 70 to under 85,0 (0) % (case number)
same,Remarkably effective (%) (case number),[15]; improvement rate 85 to 100,40 (2) % (case number)
same,Ineffective (%) (case number),[15]; improvement rate under 50,40 (2) % (case number)
same,MIC,P. haemolytica 63-39,3.13 µg/mL
same,Separation rate (%) at completion (number of animal),H. somnus; at completion,0 (0/5) % (number of animal)
same,Separation rate (%) before administration (number of animal),H. somnus; [16],0 (0/5) % (number of animal)
same,MIC,E. coli K-12 R-5,> 100 µg/mL
